Data taken from the NIST ThermoML archive (doi:10.1021/je800049b).
± gives the expanded uncertainty stated by the source.

Tests used:
[1] = Molar enthalpy of transition or fusion; conditions: Crystal; DSC
[2] = Crystal; DTA

- Molar enthalpy of transition or fusion [1]: 5.24 ± 0.155 kcal/mol
- Normal melting temperature [2]: 192.97 ± 0.5 °C
Structure (SMILES): O=P(O)(c1ccccc1)c1ccccc1 [diphenylphosphinic acid]
